Marks after values point to notes of the source that are not given here.
Columns and labels:
[1] = tested on: xylene-induced ear swelling in mice; assay: Anti-inflammatory activity: xylene-induced ear swelling; type: in vivo; conditions: n = 8
Method: 144 healthy mice were randomly divided into 3 groups, a baicalin group, a baicalin magnesium group and a control group. Each group was divided into six subgroups each having 8 mice according to time points (1 h, 3 h, 5 h, 7 h, 11 h and 15 h). Mice in the baicalin group were orally administrated (ig administration) at a dose of 100 mg·kg-1; mice in the baicalin magnesium group were orally administrated (ig administration) at a dose equivalent to 100 mg·kg-1 of baicalin; and mice in the control group were administrated with the same volume of normal saline. At 40 minutes before each time point, 100 μl of xylene was dropped in left ears of the mice in each group; when at a time point, the animals were sacrificed. Auricles of both ears of the mice were obtained with a puncher, and the difference in weight (swelling degree) between the left ear and the right ear was used as an indication of the anti-inflammatory effect of the drug.

[2] = tested on: mice with acute liver injury induced by D-galactose; assay: Protection against liver injury (D-galactose-induced acute liver injury); type: in vivo; conditions: intragastric, 10 mg/kg baicalin or equivalent, 5 days, D-galactose 0.5 g/kg i.p. on day 4
Method: 40 healthy mice were randomly divided into 4 groups, a normal group, a model group, a baicalin group and a baicalin magnesium group. Mice in the baicalin group were administrated with baicalin at a dose of 10 mg/kg, and mice in the baicalin magnesium group were administrated with baicalin magnesium at a dose equivalent to 10 mg/kg of baicalin. Mice in the normal group and the model group were intragastrically administrated with the same volume of normal saline for 5 days. On the fourth day, mice in the model group and the administration groups were intraperitoneally injected with 0.5 g/kg of D-galactose, and mice in the normal group were intraperitoneally injected with the same volume of normal saline. The activities of ALT, AST, SOD and GSH-Px in the serum and the content of MDA were detected. Variance analysis was performed by SPSS-19.0 statistical software.

[3] = tested on: mice with cerebral ischemia; assay: Learning and memory function in mice with cerebral ischemia (water maze test); type: in vivo; conditions: i.p. 12.5 mg/kg baicalin or equivalent for 12 days after carotid clipping 20 min
Method: 80 healthy mice were randomly divided into 4 groups each having 20 mice, a model group, a sham-operation group, a baicalin group and a baicalin magnesium group. For the model group, mice were intraperitoneally injected with 1% of pentobarbital sodium for anesthesia, and then the left and right common carotid arteries were exposed and separated. The left and right arteries were immediately clipped with a vessel clamp for 20 minutes. The vessel clamp then were released; arteries were sutured; and the mice were put back in the cage for breeding. For the sham-operation group, the left and right common carotid arteries were exposed by the same method as above but without clipping. The left and right arteries were sutured, and the mice were put back in the cage for breeding. For the baicalin group, the operation was the same as that for the model group, and on the second day after the operation the mice were intraperitoneally injected with 12.5 mg/kg of baicalin for successive 12 days. For the baicalin magnesium group, the operation was the same as that for the model group, and on the second day after the operation the mice were intraperitoneally injected with baicalin magnesium (at a dose equivalent to 12.5 mg/kg of baicalin) for successive 12 days. The mice in the sham-operation group and the model group were administrated with the same volume of normal saline. Water Maze Test: a circular water tank for test was 120 cm in diameter and 60 cm in height; a cylindrical platform was 10 cm in diameter and 40 cm in height; and an interior of the circular water tank was black. A camera connected to a display was provided to record the movement of mice. During the test, the water depth was 12 cm, and the water temperature was (25±2) ° C. All space signs around the maze remained unchanged throughout the test. Water Maze Test for Memory: on the day before the beginning of the test, each of mice were familiar with the water environment in the maze for 2 minutes. The mice were randomly placed in water close to walls of maze from four different quadrants (North, West, South and East, in one period of time), and the time from the mice entering water to climbing on the platform was recorded as an escape latency. […] The mice were continuously trained for 15 days at a frequency of two times of training per day. Each group of animals was subjected to a water maze test in turn. The path on the first day had two blind ends; the path on the second day had three blind ends; and the path on the third day, the fourth day and the fifth day had four blind ends. The mice were placed in water toward the walls, and the time from the mice entering water to arriving at the platform (latency) and the number of entering the blind ends were recorded. […]

[4] = tested on: yeast-induced febrile rats; assay: Antipyretic effect in yeast-induced febrile rats; type: in vivo, SD male rats; conditions: for ΔT comparing the baicalin magnesium with the baicalin: difference between groups; for Body temperature change ΔT: intragastric 80 mg/kg baicalin or equivalent
Method: SD male rats were randomly divided into 4 groups, a control group, a model group, a baicalin group and a baicalin magnesium group. Rats were raised in a normal day/night cycle and at room temperature (22±2° C.) and a relative humidity of (50±2)%. Three days before the test, rats were placed in the experimental environment to adapt to the experimental conditions. Rats having a basal body temperature of 37.5-39.0° C. were selected for test The rats were fasted for 12 hours before the test, and the body temperature of rats was measured once every 1 hour when tested. Average of three body temperature values (the temperature values would be removed if a difference between the highest value and the lowest value was greater than 0.5° C.) of rats was used as the basal body temperature.
The rats were intragastrically administrated with baicalin or baicalin magnesium, and then immediately subcutaneously injected with 20% of dried yeast saline suspension (not for the control group). The administration mode was as follows: rats in the control group were intragastrically administrated with 2 ml/kg of normal saline and subcutaneously injected with 10 ml/kg of normal saline; rats in the model group were ntragastrically administrated 2 ml/kg of normal saline and subcutaneously injected with 2 g/kg of yeast; rats in the baicalin group were intragastrically administrated with 80 mg/kg of baicalin and subcutaneously injected with 2 g/kg of yeast; and rats in the baicalin magnesium group were intragastrically administrated with baicalin magnesium (equivalent to 80 mg/kg of baicalin) and subcutaneously injected with 2 g/kg of yeast. The body temperature of the rats was measured once every 2 hours for 14 hours to observe the temperature change of rats (ΔT, ° C.) at different time after injection of the yeast.

[5] = 1 h after oral 100 mg/kg baicalin or equivalent
[6] = 3 h after oral 100 mg/kg baicalin or equivalent
[7] = 5 h after oral 100 mg/kg baicalin or equivalent
[8] = 7 h after oral 100 mg/kg baicalin or equivalent
[9] = 11 h after oral 100 mg/kg baicalin or equivalent
[10] = 15 h after oral 100 mg/kg baicalin or equivalent

SMILES | Ear swelling degree (difference in weight left vs right ear) [1, 5] | Ear swelling degree (difference in weight left vs right ear) [1, 6] | Ear swelling degree (difference in weight left vs right ear) [1, 7] | Ear swelling degree (difference in weight left vs right ear) [1, 8] | Ear swelling degree (difference in weight left vs right ear) [1, 9] | Ear swelling degree (difference in weight left vs right ear) [1, 10] | ALT (serum) [2] | AST (serum) [2] | GSH-Px (serum) [2] | MDA (serum) [2] | SOD (serum) [2] | Escape Latency [3] | Number of Errors [3] | ΔT comparing the baicalin magnesium with the baicalin ([4]; 6 h) | Body temperature change ΔT ([4]; 6 h after yeast 2 g/kg s.c.) | ΔT comparing the baicalin magnesium with the baicalin ([4]; 8 h) | Body temperature change ΔT ([4]; 8 h after yeast 2 g/kg s.c.)
O=C(O)C1O[C@@H](Oc2cc3oc(-c4ccccc4)cc(=O)c3c(O)c2O)C(O)[C@@H](O)[C@@H]1O (some centres unmarked) [Baicalin Magnesium, baicalin magnesium] | 5.87 ± 2.05*^Δ mg | 4.57 ± 3.56 mg | 4.63 ± 2.78 mg | 5.87 ± 3.43 mg | 6.77 ± 3.75*^Δ mg | 7.97 ± 2.85^Δ mg | 165.1 ± 8.7*^Δ U/L | 139.8 ± 13.7*^Δ U/L | 11.8 ± 0.5*^Δ U/L | 2.1 ± 0.3*^Δ nmol/L | 48.2 ± 2.9 U/L | 26.54 ± 8.34*^Δ s | 3.82 ± 2.12*^Δ | 0.2 °C | 0.2 °C | 0.5 °C | 0.3 °C
O=C(O)[C@H]1O[C@@H](Oc2cc3oc(-c4ccccc4)cc(=O)c3c(O)c2O)[C@H](O)[C@@H](O)[C@@H]1O [Baicalin] | 7.57 ± 3.05 mg | 4.66 ± 2.76 mg | 4.88 ± 1.99 mg | 6.77 ± 2.54 mg | 7.89 ± 2.98 mg | 9.12 ± 1.98 mg | 191.4 ± 19.4 U/L | 168.5 ± 11.9 U/L | 9.8 ± 0.9 U/L | 3.1 ± 0.4 nmol/L | 45.2 ± 2.9 U/L | 38.88 ± 11.99 s | 4.56 ± 3.78 | – | 0.4 °C | – | 0.8 °C
